Measurements published in patent publication US8436154B2, “Crystallizing method of erythromycin” (Sunshine Lake Pharma Co., Ltd., priority 2008, dated 2013).

assay: microbiological titre of erythromycin crystals; assay type: cell-based; details: dried erythromycin crystals recrystallized from dichloromethane-containing solvent

Row | Substance | microbiological titre
1 | erythromycin [Example 1] | 948 μ/mg
2 | erythromycin [Example 2] | 955 μ/mg
3 | erythromycin [Example 3] | 941 μ/mg
4 | erythromycin [Example 4] | 946 μ/mg
5 | erythromycin [Example 5] | 943 μ/mg

assay: not given; details: erythromycin crystals of CN1513864A, recrystallized from acetone and water; cited from earlier work

Row | Substance | microbiological titre
6 | erythromycin [erythromycin crystals] | less than 930 μ/mg
